In BindingDB's records for doi:10.1016/s0196-9781(99)00098-4 (Uppsala University, 1999) one finds Ki data, which are given here for three compounds.

Usually Ki stands for the dissociation constant of the complex between target and ligand, obtained from inhibition or displacement. Read a low Ki as higher affinity.

The target in experiment [1] is T1, Neuropeptide Y receptor type 1 (Rattus norvegicus, UniProt P21555).
T1 sequence (P21555 whole entry): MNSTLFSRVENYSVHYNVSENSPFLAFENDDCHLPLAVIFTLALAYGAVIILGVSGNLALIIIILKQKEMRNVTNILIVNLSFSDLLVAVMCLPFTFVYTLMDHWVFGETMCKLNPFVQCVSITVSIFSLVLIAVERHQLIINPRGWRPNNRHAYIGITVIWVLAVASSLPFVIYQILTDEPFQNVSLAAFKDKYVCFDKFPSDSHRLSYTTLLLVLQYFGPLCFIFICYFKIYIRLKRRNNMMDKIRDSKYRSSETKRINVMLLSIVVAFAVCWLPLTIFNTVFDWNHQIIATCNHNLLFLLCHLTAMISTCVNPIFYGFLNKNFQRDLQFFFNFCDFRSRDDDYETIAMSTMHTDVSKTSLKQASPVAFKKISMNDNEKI

Experiment [2] has as its target T2, Neuropeptide Y receptor type 1 (Cavia porcellus, UniProt Q9WVD0).
T2 sequence (Q9WVD0 whole entry): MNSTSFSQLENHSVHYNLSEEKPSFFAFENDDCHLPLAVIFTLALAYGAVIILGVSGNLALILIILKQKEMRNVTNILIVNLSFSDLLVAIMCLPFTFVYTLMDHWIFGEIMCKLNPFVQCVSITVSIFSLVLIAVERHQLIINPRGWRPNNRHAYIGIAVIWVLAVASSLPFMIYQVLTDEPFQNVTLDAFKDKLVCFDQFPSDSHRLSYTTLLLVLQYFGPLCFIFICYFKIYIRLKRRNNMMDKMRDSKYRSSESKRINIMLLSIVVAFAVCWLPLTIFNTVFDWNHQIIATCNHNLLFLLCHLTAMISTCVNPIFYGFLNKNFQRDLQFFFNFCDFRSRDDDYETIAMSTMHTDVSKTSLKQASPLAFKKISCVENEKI

Regarding `CN(C)CC1CCC(CN=C(N)c2ccc(CC(NC(=O)C(Cc3ccccc3)NS(=O)(=O)c3ccc4ccccc4c3)C(=O)N3CCCC3)cc2)CC1` (stereo not given) [CAS_5312150], the figures for the Ki in experiment [1] and in experiment [2] were 1.3 nM and 0.8 nM, respectively.
Consider `N=C(N)NCCCC(NC(=O)C(c1ccccc1)c1ccccc1)C(=O)NCc1ccc(O)cc1` (stereo not given) [NSC_5311023], for which the Ki in experiment [2] is 4.9 nM.
For “H-INPIYRLRY-NH2 [NPY 28-36, [P30, Y32, L34]]”, the Ki in experiment [1] came out at 1.4 nM; in experiment [2], 2.4 nM.
